Test results: paper PMC8286840, “Identifying SARS-CoV-2 antiviral compounds by screening for small molecule inhibitors of Nsp3 papain-like protease” (Biochemical Journal, 2021)
Structures can show the parent of a compound that is named as a salt. Where two headings read alike, the source gives them in different places.

Assays:
[1] = target: T1, SARS-CoV-2 PLpro (nsp3 1564–1878) (Severe acute respiratory syndrome coronavirus 2, UniProt P0DTD1); test: biochemical; set-up: FRET-quenched peptide (Pro3) cleavage by PLpro, 10 min pre-incubation, slope over 20 min, normalised to no-compound control; conditions: high concentration screen, read-out: % of control remaining
[2] = target: T1, SARS-CoV-2 PLpro (nsp3 1564–1878); test: biochemical; set-up: FRET-quenched peptide (Pro3) cleavage by PLpro, 10 min pre-incubation, slope over 20 min, normalised to no-compound control; conditions: low concentration screen, read-out: % of control remaining

Cc1ncc(CNC(=O)N(CCCl)N=O)c(N)n1 [Nimustine (hydrochloride)]
remaining activity at 3.75 µM ([1]; Well no.=6836): 95.5%
remaining activity at 1.25 µM ([2]; Well no.=6836): 95.8%

Nc1nccc(Oc2ccc(NC(=O)c3c[nH]cc(-c4ccc(F)cc4)c3=O)cc2F)c1Cl [BMS 794833]
remaining activity at 3.75 µM ([1]; Well no.=5150): 96.4%
remaining activity at 1.25 µM ([2]; Well no.=5150): 100%

O=C(NCC(=O)N1CC[C@H](N[C@H]2CC[C@@](O)(c3ccc(-c4ncccn4)cn3)CC2)C1)c1cccc(C(F)(F)F)c1 [PF-4136309]
remaining activity at 3.75 µM ([1]; Well no.=7097): 98.1%
remaining activity at 3.75 µM ([1]; Well no.=8085): 89%
remaining activity at 1.25 µM ([2]; Well no.=7097): 98.3%
remaining activity at 1.25 µM ([2]; Well no.=8085): 98%

COc1ccccc1N1CCN(CCN(C(=O)C2CCCCC2)c2ccccn2)CC1 [WAY-100635 (maleate salt)]
remaining activity at 3.75 µM ([1]; Well no.=7000): 99.5%
remaining activity at 1.25 µM ([2]; Well no.=7000): 99.7%

O=C1NCN(c2ccccc2)C12CCN(CCCC(c1ccc(F)cc1)c1ccc(F)cc1)CC2 [Fluspirilene]
remaining activity at 3.75 µM ([1]; Well no.=569): 97.3%
remaining activity at 3.75 µM ([1]; Well no.=1599): 98.9%
remaining activity at 1.25 µM ([2]; Well no.=569): 98.4%

O=C(O)C=Cc1ccc(O)cc1 [p-Hydroxycinnamic acid]
remaining activity at 3.75 µM ([1]; Well no.=7161): 103%
remaining activity at 1.25 µM ([2]; Well no.=7161): 105%

O=C(Nc1cc(C(=O)Nc2ccc(S(=O)(=O)O)cc2S(=O)(=O)O)cc(C(=O)Nc2ccc(S(=O)(=O)O)cc2S(=O)(=O)O)c1)Nc1cc(C(=O)Nc2ccc(S(=O)(=O)O)cc2S(=O)(=O)O)cc(C(=O)Nc2ccc(S(=O)(=O)O)cc2S(=O)(=O)O)c1 [NF449 octasodium salt]
remaining activity at 3.75 µM ([1]; Well no.=1095): 98.3%
remaining activity at 1.25 µM ([2]; Well no.=1095): 97.6%

O=[N+]([O-])c1cc(S(=O)(=O)Nc2ccc(O)c3ccccc23)ccc1Cl [4-chloro-N-(4-hydroxy-1-naphthyl)-3-nitrobenzenesulfonamide]
remaining activity at 3.75 µM ([1]; Well no.=5816): 97.4%
remaining activity at 1.25 µM ([2]; Well no.=5816): 96.1%

Nc1c(C(=O)O)c2nc3c(C(=O)O)cccc3oc-2cc1=O [Cinnabarinic Acid]
remaining activity at 3.75 µM ([1]; Well no.=5384): 96.7%
remaining activity at 1.25 µM ([2]; Well no.=5384): 91.8%

C=C1[C@H](CO)[C@@H](O)C[C@@H]1n1cnc2c(=O)[nH]c(N)nc21 [Entecavir hydrate]
remaining activity at 3.75 µM ([1]; Well no.=5147): 95.5%
remaining activity at 1.25 µM ([2]; Well no.=5147): 93.9%

CC(C)C[C@H]1C(=O)O[C@H](Cc2ccc(N3CCOCC3)cc2)C(=O)N(C)[C@@H](CC(C)C)C(=O)O[C@H](C)C(=O)N(C)[C@@H](CC(C)C)C(=O)O[C@H](Cc2ccc(N3CCOCC3)cc2)C(=O)N(C)[C@@H](CC(C)C)C(=O)O[C@H](C)C(=O)N1C [Emodepside]
remaining activity at 3.75 µM ([1]; Well no.=8506): 100%
remaining activity at 1.25 µM ([2]; Well no.=8506): 100%

Nc1cccc(-c2cc3c(Oc4cccc(O)c4)ncnc3[nH]2)c1 [GSK3b Inhibitor XII, TWS119]
remaining activity at 3.75 µM ([1]; Well no.=2608): 95.8%
remaining activity at 1.25 µM ([2]; Well no.=2608): 97.8%

CCOC(=O)[C@H](CCc1ccccc1)N[C@H]1CCc2ccccc2N(CC(=O)O)C1=O [Benazepril (hydrochloride)]
remaining activity at 3.75 µM ([1]; Well no.=7786): 104%
remaining activity at 1.25 µM ([2]; Well no.=7786): 104%

CCCC(=O)O[C@]1(C(=O)CO)CC[C@H]2[C@@H]3CCC4=CC(=O)CC[C@]4(C)[C@H]3[C@@H](O)C[C@@]21C [Hydrocortisone butyrate]
remaining activity at 3.75 µM ([1]; Well no.=5418): 98.8%
remaining activity at 1.25 µM ([2]; Well no.=5418): 94.8%

CCCCCCCCCCCCC(O)C(=O)O (stereo not shown) [2-Hydroxymyristic acid]
remaining activity at 3.75 µM ([1]; Well no.=4353): 102%
remaining activity at 1.25 µM ([2]; Well no.=4353): 103%

CC(C)C[C@H](O)C(=O)O [(S)-Leucic acid]
remaining activity at 3.75 µM ([1]; Well no.=6633): 109%
remaining activity at 1.25 µM ([2]; Well no.=6633): 108%

CC(=O)CCC(=O)O [Levulinic acid]
remaining activity at 3.75 µM ([1]; Well no.=6545): 98%
remaining activity at 1.25 µM ([2]; Well no.=6545): 101%

COc1nc(C)nc(Cl)c1NC1=NCCN1 [Moxonidine hydrochloride]
remaining activity at 3.75 µM ([1]; Well no.=920): 102%
remaining activity at 1.25 µM ([2]; Well no.=920): 100%

CC[C@@H](C(=O)O)[C@@H]1O[C@@H]([C@@H](C)[C@H](O)[C@H](C)C(=O)[C@H](CC)[C@H]2O[C@]3(C=C[C@@H](O)[C@]4(CC[C@@](C)([C@H]5CC[C@](O)(CC)[C@H](C)O5)O4)O3)[C@H](C)C[C@@H]2C)[C@@H](C)C[C@@H]1C [Narasin]
remaining activity at 3.75 µM ([1]; Well no.=3258): 96%
remaining activity at 1.25 µM ([2]; Well no.=3258): 94.4%

O=c1cc(-c2ccc(O)c(O)c2)oc2cc(O)cc(O)c12 [Luteolin]
remaining activity at 3.75 µM ([1]; Well no.=837): 102%
remaining activity at 3.75 µM ([1]; Well no.=3318): 98.3%
remaining activity at 1.25 µM ([2]; Well no.=837): 96.9%
remaining activity at 1.25 µM ([2]; Well no.=3318): 97.2%

CCCN(CCC)C(=O)C1=Cc2ccc(-c3ccc(C(=O)N4CCCC4)cc3)cc2N=C(N)C1 [Motolimod]
remaining activity at 3.75 µM ([1]; Well no.=8413): 99%
remaining activity at 1.25 µM ([2]; Well no.=8413): 103%

CC[C@@H](Nc1c(Nc2cccc(C(=O)N(C)C)c2O)c(=O)c1=O)c1ccc(C)o1 [Navarixin]
remaining activity at 3.75 µM ([1]; Well no.=8175): 101%
remaining activity at 1.25 µM ([2]; Well no.=8175): 105%

CC[C@H](C)C(=O)O[C@H]1C[C@@H](C)C=C2C=C[C@H](C)[C@H](CC[C@@H]3C[C@@H](O)CC(=O)O3)[C@H]21 [Lovastatin]
remaining activity at 1.25 µM ([2]; Well no.=1830): 99.3%

CC(=O)O[C@H]1C(=O)[C@@]2(C)[C@H]([C@H](OC(=O)c3ccccc3)[C@]3(O)C[C@H](OC(=O)[C@H](O)[C@@H](NC(=O)c4ccccc4)c4ccccc4)C(C)=C1C3(C)C)[C@]1(OC(C)=O)CO[C@@H]1C[C@@H]2O [Taxol]
remaining activity at 1.25 µM ([2]; Well no.=1180): 92.6%
remaining activity at 1.25 µM ([2]; Well no.=1999): 103%
remaining activity at 1.25 µM ([2]; Well no.=3180): 106%

Nc1[nH]nc2nc3ccccc3nc12 [NSC 693868 - 1H-Pyrazolo[3,4-b]quinoxalin-3-amine]
remaining activity at 1.25 µM ([2]; Well no.=2476): 95.5%

COc1cc2ncnc(Nc3ccc(F)c(Cl)c3)c2cc1OCCCN1CCOCC1 [Iressa - N-(3-chloro-4-fluoro-phenyl)-7-methoxy-6-(3-morpholin-4-ylpropoxy)quinazolin-4-amine]
remaining activity at 1.25 µM ([2]; Well no.=2670): 97.6%

Cc1cccc2c3c(ccc12)C1=C(C(=O)C3=O)C(C)CO1 (stereo not shown) [Dihydrotanshinone]
remaining activity at 1.25 µM ([2]; Well no.=3569): 102%

CCCCC[C@H](O)/C=C/[C@@H]1[C@@H](C/C=C\CCCC(=O)O)[C@@H](O)C[C@H]1O [Prostaglandin F2a]
remaining activity at 1.25 µM ([2]; Well no.=3094): 107%

CC(CN1c2ccccc2Sc2ccccc21)N(C)C (stereo not shown) [Promethazine (hydrochloride)]
remaining activity at 1.25 µM ([2]; Well no.=6811): 99.3%

CN(C)C(=O)Oc1cccc([N+](C)(C)C)c1 [Neostigmine bromide]
remaining activity at 1.25 µM ([2]; Well no.=853): 105%

CC1(C)[C@H](C(=O)O)N2C(=O)C[C@H]2S1(=O)=O [Sulbactam]
remaining activity at 1.25 µM ([2]; Well no.=2023): 106%
remaining activity at 1.25 µM ([2]; Well no.=7450): 101%

O=c1[nH]c2ccccc2n1CCN1CCN(c2cccc(C(F)(F)F)c2)CC1 [Flibanserin]
remaining activity at 1.25 µM ([2]; Well no.=6855): 102%

CC(NC(C)(C)C)C(=O)c1cccc(Cl)c1 (stereo not shown) [Amfebutamone]
remaining activity at 1.25 µM ([2]; Well no.=1694): 98.7%

CC(C)[N+]1(C)[C@@H]2CC[C@H]1C[C@@H](OC(=O)C(CO)c1ccccc1)C2 (stereo partly shown) [Ipratropium (bromide)]
remaining activity at 1.25 µM ([2]; Well no.=6175): 100%
